Like-named read-outs stand apart in the source and are kept apart here.
Target: T1, hENT1 (Homo sapiens, UniProt Q99808)
T1 construct: performed on erythrocyte cell membranes endogenously expressing the transporter; tissue Sanquin Bloedvoorziening, Amsterdam, The Netherlands; host or cells: erythrocyte membranes (endogenous expression)
T1 sequence (Q99808 1-456): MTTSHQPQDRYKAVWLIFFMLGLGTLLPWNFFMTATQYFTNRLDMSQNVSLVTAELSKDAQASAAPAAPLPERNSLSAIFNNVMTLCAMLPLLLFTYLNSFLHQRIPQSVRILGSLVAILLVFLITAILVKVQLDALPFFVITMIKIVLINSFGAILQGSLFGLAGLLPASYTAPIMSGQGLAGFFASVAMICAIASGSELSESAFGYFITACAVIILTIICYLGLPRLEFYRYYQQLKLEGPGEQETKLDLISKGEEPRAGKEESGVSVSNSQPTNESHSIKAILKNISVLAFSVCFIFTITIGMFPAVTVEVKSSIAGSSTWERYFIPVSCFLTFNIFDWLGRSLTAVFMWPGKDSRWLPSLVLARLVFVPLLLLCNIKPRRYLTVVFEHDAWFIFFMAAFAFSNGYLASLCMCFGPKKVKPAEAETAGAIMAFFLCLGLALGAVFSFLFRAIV
Assay: time-dependent hENT1 radioligand binding assay ([3H]NBTI displacement with or without 4 h preincubation)
Conditions: for % displacement at 1 μM at 4 h preincubation / % displacement at 1 μM without preincubation / [3H]NBTI displacement: 1 µM inhibitor; for % displacement at 1 μM at 4 h preincubation / % displacement at 1 μM without preincubation: mean (individual values) of two experiments; for [3H]NBTI displacement: with or without 4 h preincubation not told apart; for time-dependent shift in affinity (pKi shift) or displacement upon 4 h preincubation: 4 h preincubation vs without preincubation
Procedure: Radioligand displacement assays were performed as previously described. In brief, the experiments were performed on erythrocyte membranes (Sanquin Bloedvoorziening, Amsterdam, The Netherlands) using a single concentration of 1 µM or multiple concentrations (ranging from 10^–10 to 10^–6) of unlabeled inhibitors in the presence of 4 nM [^3H]NBTI at 10 °C for 1 h in assay buffer (50 mM Tris–HCl, pH 7.4, 0.1% w/v CHAPS). Non-specific binding (NSB) was assessed with 10 µM unlabeled NBTI. […] Subsequently, [^3H]NBTI was added to the preincubated and control samples (containing erythrocyte membranes, unlabeled inhibitor and radioligand) and both types of samples were incubated for another hour. Incubation was terminated by rapid vacuum filtration over Whatman™ UniFilter™ 96-well GF/C microplates using a FilterMate™ Universal Harvester (PerkinElmer, Groningen, The Netherlands). Subsequently, the plates were washed ten times with ice-cold wash buffer (50 mM Tris–HCl, pH 7.4). Thereafter, the filters were dried for 45 min at 55 °C and 25 µL of Microscint (PerkinElmer) was added per well.
All experimental data was analyzed using GraphPad Prism 10.0.2 software (GraphPad Software Inc., San Diego, CA, USA). [^3H]NBTI assays were baseline-corrected with NSB and normalized to this value (0%) and TB (100%). The radioligand displacement curves were fitted to a one-site binding model by nonlinear regression from which the pIC50 values were obtained. […] Data shown represent the mean ± SD of at least two or mean ± SEM of at least three individual experiments each performed in duplicate.
Next, the potentially covalent inhibitors that we synthesized were subjected to the aforementioned radioligand displacement assay. To study the existence of a covalent interaction with hENT1, an additional preincubation step was included.

[1] = Ki (nM) at 4 h preincubation, 4 h preincubation at 10 °C
[2] = pKi ± SEM at 4 h preincubation, 4 h preincubation at 10 °C
[3] = without preincubation, read-out: Ki (nM) without preincubation (converted)

Compound | % displacement at 1 μM at 4 h preincubation (4 h preincubation at 10 °C) | % displacement at 1 μM without preincubation (without preincubation) | other results
COc1cc(C(=O)OCCCN2CCN(CCOC(=O)c3cccc(S(=O)(=O)F)c3)CC2)cc(OC)c1OC [Compound 9a, 3-(4-(2-((3-(fluorosulfonyl)benzoyl)oxy)ethyl)piperazin-1-yl)propyl 3,4,5-trimethoxybenzoate] | 3 (-9, 13) % | -14 (-21, -7) % | 
COc1cc(C(=O)OCCCN2CCN(CCCOC(=O)c3cccc(S(=O)(=O)F)c3)CC2)cc(OC)c1OC [Compound 9b, 3-(4-(3-((3-(fluorosulfonyl)benzoyl)oxy)propyl)piperazin-1-yl)propyl 3,4,5-trimethoxybenzoate] | 33 (32, 34) % | 33 (32, 33) % | 
COc1cc(C(=O)OCCCN2CCN(CCCCOC(=O)c3cccc(S(=O)(=O)F)c3)CC2)cc(OC)c1OC [Compound 9c, 3-(4-(4-((3-(fluorosulfonyl)benzoyl)oxy)butyl)piperazin-1-yl)propyl 3,4,5-trimethoxybenzoate] | 51 (48, 54) % | 61 (53, 69) % | 
COc1cc(C(=O)OCCCN2CCN(CCOC(=O)c3ccc(S(=O)(=O)F)cc3)CC2)cc(OC)c1OC [Compound 9d, 3-(4-(2-((4-(fluorosulfonyl)benzoyl)oxy)ethyl)piperazin-1-yl)propyl 3,4,5-trimethoxybenzoate] | 33 (34, 32) % | 17 (12, 22) % | 
COc1cc(C(=O)OCCCN2CCN(CCCOC(=O)c3ccc(S(=O)(=O)F)cc3)CC2)cc(OC)c1OC [Compound 9e, 3-(4-(3-((4-(fluorosulfonyl)benzoyl)oxy)propyl)piperazin-1-yl)propyl 3,4,5-trimethoxybenzoate] | 26 (30, 22) % | 26 (24, 27) % | 
COc1cc(C(=O)OCCCN2CCN(CCCCOC(=O)c3ccc(S(=O)(=O)F)cc3)CC2)cc(OC)c1OC [Compound 9f, 3-(4-(4-((4-(fluorosulfonyl)benzoyl)oxy)butyl)piperazin-1-yl)propyl 3,4,5-trimethoxybenzoate] | 54 (53, 56) % | 57 (52, 62) % | 
COc1cc(C(=O)OCCCN2CCN(CCCOC(=O)c3ccc(N=C=S)cc3)CC2)cc(OC)c1OC [Compound 9g, 3-(4-(3-((4-isothiocyanatobenzoyl)oxy)propyl)piperazin-1-yl)propyl 3,4,5-trimethoxybenzoate] |  |  | Ki [1]: 29.9 nM; Ki [2]: 29.5 nM; Ki [3]: 48.5 nM
C=CC(=O)Nc1cccc(C(=O)OCCCN2CCN(CCCOC(=O)c3cc(OC)c(OC)c(OC)c3)CC2)c1 [Compound 10a, 3-(4-(3-((3-acrylamidobenzoyl)oxy)propyl)piperazin-1-yl)propyl 3,4,5-trimethoxybenzoate] | 24 (18, 30) % | 20 (15, 26) % | [3H]NBTI displacement: around 20%
C=CC(=O)Nc1ccc(C(=O)OCCCN2CCN(CCCOC(=O)c3cc(OC)c(OC)c(OC)c3)CC2)cc1 [Compound 10b, 3-(4-(3-((4-acrylamidobenzoyl)oxy)propyl)piperazin-1-yl)propyl 3,4,5-trimethoxybenzoate] |  |  | time-dependent shift in affinity (pKi shift) or displacement upon 4 h preincubation: absence of a pKi shift; Ki [1]: 43.6 nM; Ki [3]: 33.1 nM
C=CC(=O)Nc1ccc(C(=O)OCCCCN2CCN(CCCOC(=O)c3cc(OC)c(OC)c(OC)c3)CC2)cc1 [Compound 10c, 3-(4-(4-((4-acrylamidobenzoyl)oxy)butyl)piperazin-1-yl)propyl 3,4,5-trimethoxybenzoate] | 41 (30, 51) % | 47 (40, 54) % | 
C=CC(=O)Nc1ccc(C(=O)OCCCN2CCN(CCCOC(=O)c3cc(OC)c(OC)c(OC)c3)CC2)cc1OC [Compound 10d, 3-(4-(3-((4-acrylamido-3-methoxybenzoyl)oxy)propyl)piperazin-1-yl)propyl 3,4,5-trimethoxybenzoate] |  | 27 (28, 26) % | [3H]NBTI displacement: around 20%
C=CC(=O)NCc1ccc(C(=O)OCCCN2CCN(CCCOC(=O)c3cc(OC)c(OC)c(OC)c3)CC2)cc1 [Compound 10e, 3-(4-(3-((4-(acrylamidomethyl)benzoyl)oxy)propyl)piperazin-1-yl)propyl 3,4,5-trimethoxybenzoate] | 29 (20, 37) % | 29 (24, 35) % | 
C=CC(=O)NCCc1ccc(C(=O)OCCCN2CCN(CCCOC(=O)c3cc(OC)c(OC)c(OC)c3)CC2)cc1 [Compound 10f, 3-(4-(3-((4-(2-acrylamidoethyl)benzoyl)oxy)propyl)piperazin-1-yl)propyl 3,4,5-trimethoxybenzoate] | 7 (0, 13) % | 10 (2, 18) % | 
C=CC(=O)NCCOc1c(OC)cc(C(=O)OCCCN2CCN(CCCOC(=O)c3cc(OC)c(OC)c(OC)c3)CC2)cc1OC [Compound 14a, 3-(4-(3-((4-(2-acrylamidoethoxy)-3,5-dimethoxybenzoyl)oxy)propyl)piperazin-1-yl)propyl 3,4,5-trimethoxybenzoate] |  |  | time-dependent shift in affinity (pKi shift) or displacement upon 4 h preincubation: no observable pKi shift; Ki [1]: 50.6 nM; Ki [3]: 48.6 nM
C=CC(=O)NCCCOc1c(OC)cc(C(=O)OCCCN2CCN(CCCOC(=O)c3cc(OC)c(OC)c(OC)c3)CC2)cc1OC [Compound 14b, 3-(4-(3-((4-(3-acrylamidopropoxy)-3,5-dimethoxybenzoyl)oxy)propyl)piperazin-1-yl)propyl 3,4,5-trimethoxybenzoate] |  |  | time-dependent shift in affinity (pKi shift) or displacement upon 4 h preincubation: no significant increase of the affinity; Ki [2]: 3.24 nM; Ki [3]: 5.9 nM
COc1cc(C(=O)OCCCN2CCN(CCCOC(=O)c3cc(OC)c(OCCCN=C=S)c(OC)c3)CC2)cc(OC)c1OC [Compound 14c, 3-(4-(3-((4-(3-isothiocyanatopropoxy)-3,5-dimethoxybenzoyl)oxy)propyl)piperazin-1-yl)propyl 3,4,5-trimethoxybenzoate] |  |  | time-dependent shift in affinity (pKi shift) or displacement upon 4 h preincubation: no significant increase of the affinity; Ki [2]: 1.55 nM; Ki (without preincubation, read-out: pKi ± SEM without preincubation (converted)): 1.07 nM
C=CS(=O)(=O)NCCCOc1c(OC)cc(C(=O)OCCCN2CCN(CCCOC(=O)c3cc(OC)c(OC)c(OC)c3)CC2)cc1OC [Compound 14d, 3-(4-(3-((3,5-dimethoxy-4-(3-(vinylsulfonamido)propoxy)benzoyl)oxy)propyl)piperazin-1-yl)propyl 3,4,5-trimethoxybenzoate] |  |  | time-dependent shift in affinity (pKi shift) or displacement upon 4 h preincubation: no significant increase of the affinity; Ki [1]: 14.2 nM; Ki [3]: 17.5 nM

Source: publication PMC12061832, “Exploring novel dilazep derivatives as hENT1 inhibitors and potentially covalent molecular tools” (Purinergic Signalling, 2024)
